≈ marks a conversion by molar mass, not a printed value.
How the values were obtained:
Type in all cases: cell-based
[1] = test system: Staphylococcus aureus ATCC29213 rpoB^H418Y; assay: microbe, parasite or virus in culture; settings: ATCC29213, read-out: Antimicrobial activity (MIC)
Method: (§1) Representative compounds were assayed for antimicrobial activity as follows: Minimum Inhibitory Concentrations (“MICs”) were determined by the microbroth dilution method as per NCCLS guidelines (National Committee for Clinical Laboratory Standards. 2000. Methods for dilution antimicrobial susceptibility tests for bacteria that grow aerobically, 5th ed. M7-A5. National Committee for Clinical Laboratory Standards, Wayne, Pa.), except that all growth incubations were conducted at 37° C. Bacterial cultures were tested in the following bacteriological media: S. aureus, S. epidermidis, and E. coli in Cation-Adjusted Mueller-Hinton Broth, S. pneumoniae in THY Broth supplemented with 1 mg/mL catalase under 5% CO2 atmosphere, S. pyogenes in THY Broth, E. faecalis in BHI Broth, H. influenzae in BHI Broth supplemented with 0.75 μL of 1 mg/mL NAD and 150 μL of 1 mg/ml hematin per 5 mL, and M. smegmatis in Middlebrook Broth plus ADC Enrichment.
(§2) S. aureus ATCC 29213 RpoB^H418Y is a rifampin-resistant strain with a mutation in RNA polymerase, the biological target of rifamycin antibiotics. […] S. aureus EN1252a gyrA^S84L grlA^S80F is a quinolone-resistant strain due to double mutations to DNA gyrase and topoisomerase IV, the two biological targets for quinolone antibiotics.

[2] = test system: Staphylococcus aureus ATCC29213 rpoB^D417Y; assay: microbe, parasite or virus in culture; settings: ATCC29213, read-out: Antimicrobial activity (MIC)
Method: as §1, §2

[3] = test system: Staphylococcus aureus EN1252a gyrA^S84L grlA^S80F; assay: microbe, parasite or virus in culture; settings: read-out: Antimicrobial activity (MIC)
Method: as §1, §2

[4] = test system: Staphylococcus epidermidis ATCC12228; assay: MIC, microbroth dilution (NCCLS); settings: rifS strain, Cation-Adjusted Mueller-Hinton Broth, 37° C., read-out: Antimicrobial activity (MIC)
[5] = test system: Streptococcus pyogenes ATCC19615; assay: MIC, microbroth dilution (NCCLS); settings: rifS strain, THY Broth, 37° C., read-out: Antimicrobial activity (MIC)
[6] = test system: Escherichia coli ATCC25922; assay: MIC, microbroth dilution (NCCLS); settings: rifS strain, Cation-Adjusted Mueller-Hinton Broth, 37° C., read-out: Antimicrobial activity (MIC)
[7] = test system: Streptococcus pneumoniae ATCC6303; assay: MIC, microbroth dilution (NCCLS); settings: rifS strain, THY Broth with 1 mg/mL catalase, 5% CO2, 37° C., read-out: Antimicrobial activity (MIC)
[8] = test system: Enterococcus faecalis ATCC29212; assay: MIC, microbroth dilution (NCCLS); settings: rifS strain, BHI Broth, 37° C., read-out: Antimicrobial activity (MIC)
[9] = test system: Mycobacterium smegmatis ATCC700084; assay: MIC, microbroth dilution (NCCLS); settings: Mycolicibacterium smegmatis, rifS strain, Middlebrook Broth plus ADC Enrichment, 37° C., read-out: Antimicrobial activity (MIC)
[10] = test system: Staphylococcus aureus ATCC29213; assay: MIC, microbroth dilution (NCCLS); settings: rifS strain, Cation-Adjusted Mueller-Hinton Broth, 37° C., read-out: Antimicrobial activity (MIC)
[11] = test system: Haemophilus influenzae ATCC10211; assay: MIC, microbroth dilution (NCCLS); settings: rifS strain, BHI Broth with NAD and hematin, 37° C., read-out: Antimicrobial activity (MIC)

COc1c(N2CCC(C3(N(C)C4CCN(C5=C6NC(=O)/C(C)=C\C=C\[C@H](C)[C@H](O)[C@@H](C)[C@@H](O)[C@@H](C)[C@H](OC(C)=O)[C@H](C)[C@@H](OC)/C=C/O[C@@]7(C)Oc8c(C)c(O)c(c(c8C7=O)C5=O)C6=O)CC4)CC3)C2)c(F)cc2c(=O)c(C(=O)O)cn(C3CC3)c12 (mixture of isomers) [Example 41]
MIC [1]: 0.06 to 16 µg/mL (≈ 0.0503 to 13.4 µM)
MIC [2]: 0.06 to 32 µg/mL (≈ 0.0503 to 26.8 µM)
MIC [3]: 0.004 to 0.5 µg/mL (≈ 0.00335 to 0.419 µM)
MIC [4]: 0.008 to 0.063 µg/mL (≈ 0.00671 to 0.0528 µM)
MIC [5]: 0.008 to 0.063 µg/mL (≈ 0.00671 to 0.0528 µM)
MIC [6]: 0.125 to 8 µg/mL (≈ 0.105 to 6.71 µM)
MIC [7]: 0.008 to 0.125 µg/mL (≈ 0.00671 to 0.105 µM)
MIC [8]: 2 to 32 µg/mL (≈ 1.68 to 26.8 µM)
MIC [9]: 0.5 to 64 µg/mL
MIC [10]: 0.004 to 0.5 µg/mL (≈ 0.00335 to 0.419 µM)
MIC [11]: 0.125 to 2 µg/mL (≈ 0.105 to 1.68 µM)

CO[C@H]1/C=C/O[C@@]2(C)Oc3c(C)c(O)c4c(c3C2=O)C(=O)C(N2CC(C(=O)NC3CCN(c5c(F)cc6c(=O)c(C(=O)O)cn(C7CC7)c6c5Cl)C3)C2)=C(NC(=O)/C(C)=C\C=C\[C@H](C)[C@H](O)[C@@H](C)[C@@H](O)[C@@H](C)[C@H](OC(C)=O)[C@@H]1C)C4=O (mixture of isomers) [Example 43, (R/S)-3-{3-[1-(3-Carboxy-8-chloro-1-cyclopropyl-6-fluoro-4-oxo-1,4-dihydroquinolin-7-yl)-pyrrolidin-3-ylcarbamoyl]-azetidin-1-yl}rifamycin S]
MIC [1]: 0.06 to 16 µg/mL (≈ 0.0525 to 14 µM)
MIC [2]: 0.06 to 32 µg/mL (≈ 0.0525 to 28 µM)
MIC [3]: 0.004 to 0.5 µg/mL (≈ 0.0035 to 0.438 µM)
MIC [4]: 0.008 to 0.063 µg/mL (≈ 0.007 to 0.0551 µM)
MIC [5]: 0.008 to 0.063 µg/mL (≈ 0.007 to 0.0551 µM)
MIC [6]: 0.125 to 8 µg/mL (≈ 0.109 to 7 µM)
MIC [7]: 0.008 to 0.125 µg/mL (≈ 0.007 to 0.109 µM)
MIC [8]: 2 to 32 µg/mL (≈ 1.75 to 28 µM)
MIC [9]: 0.5 to 64 µg/mL
MIC [10]: 0.004 to 0.5 µg/mL (≈ 0.0035 to 0.438 µM)
MIC [11]: 0.125 to 2 µg/mL (≈ 0.109 to 1.75 µM)

COc1c(N2CCC(NC(=O)C3CN(C4=C5NC(=O)/C(C)=C\C=C\[C@H](C)[C@H](O)[C@@H](C)[C@@H](O)[C@@H](C)[C@H](OC(C)=O)[C@H](C)[C@@H](OC)/C=C/O[C@@]6(C)Oc7c(C)c(O)c(c(c7C6=O)C4=O)C5=O)C3)C2)c(F)cc2c(=O)c(C(=O)O)cn(C3CC3)c12 (mixture of isomers) [Example 44, (R/S)-3-{3-[1-(3-Carboxy-1-cyclopropyl-6-fluoro-8-methoxy-4-oxo-1,4-dihydroquinolin-7-yl)-pyrrolidin-3-ylcarbamoyl]-azetidin-1-yl}rifamycin S]
MIC [1]: 0.06 to 16 µg/mL (≈ 0.0527 to 14.1 µM)
MIC [2]: 0.06 to 32 µg/mL (≈ 0.0527 to 28.1 µM)
MIC [3]: 0.004 to 0.5 µg/mL (≈ 0.00351 to 0.439 µM)
MIC [4]: 0.008 to 0.063 µg/mL (≈ 0.00703 to 0.0554 µM)
MIC [5]: 0.008 to 0.063 µg/mL (≈ 0.00703 to 0.0554 µM)
MIC [6]: 0.125 to 8 µg/mL (≈ 0.11 to 7.03 µM)
MIC [7]: 0.008 to 0.125 µg/mL (≈ 0.00703 to 0.11 µM)
MIC [8]: 2 to 32 µg/mL (≈ 1.76 to 28.1 µM)
MIC [9]: 0.5 to 64 µg/mL
MIC [10]: 0.004 to 0.5 µg/mL (≈ 0.00351 to 0.439 µM)
MIC [11]: 0.125 to 2 µg/mL (≈ 0.11 to 1.76 µM)

CO[C@H]1/C=C/O[C@@]2(C)Oc3c(C)c(O)c4c(c3C2=O)C(=O)C(N2CCC(C(=O)NC3CCN(c5c(F)cc6c(=O)c(C(=O)O)cn(C7CC7)c6c5Cl)C3)CC2)=C(NC(=O)/C(C)=C\C=C\[C@H](C)[C@H](O)[C@@H](C)[C@@H](O)[C@@H](C)[C@H](OC(C)=O)[C@@H]1C)C4=O (mixture of isomers) [Example 49, (R/S)-3-{4-[1-(3-Carboxy-8-chloro-1-cyclopropyl-6-fluoro-4-oxo-1,4-dihydroquinolin-7-yl)-pyrrolidin-3-ylcarbamoyl]-piperidin-1-yl}rifamycin S]
MIC [1]: 0.06 to 16 µg/mL (≈ 0.0513 to 13.7 µM)
MIC [2]: 0.06 to 32 µg/mL (≈ 0.0513 to 27.3 µM)
MIC [3]: 0.004 to 0.5 µg/mL (≈ 0.00342 to 0.427 µM)
MIC [4]: 0.008 to 0.063 µg/mL (≈ 0.00683 to 0.0538 µM)
MIC [5]: 0.008 to 0.063 µg/mL (≈ 0.00683 to 0.0538 µM)
MIC [6]: 0.125 to 8 µg/mL (≈ 0.107 to 6.83 µM)
MIC [7]: 0.008 to 0.125 µg/mL (≈ 0.00683 to 0.107 µM)
MIC [8]: 2 to 32 µg/mL (≈ 1.71 to 27.3 µM)
MIC [9]: 0.5 to 64 µg/mL
MIC [10]: 0.004 to 0.5 µg/mL (≈ 0.00342 to 0.427 µM)
MIC [11]: 0.125 to 2 µg/mL (≈ 0.107 to 1.71 µM)

COc1c(N2CCC(NC(=O)C3CCN(C4=C5NC(=O)/C(C)=C\C=C\[C@H](C)[C@H](O)[C@@H](C)[C@@H](O)[C@@H](C)[C@H](OC(C)=O)[C@H](C)[C@@H](OC)/C=C/O[C@@]6(C)Oc7c(C)c(O)c(c(c7C6=O)C4=O)C5=O)CC3)C2)c(F)cc2c(=O)c(C(=O)O)cn(C3CC3)c12 (mixture of isomers) [Example 50, (R/S)-3-{4-[1-(3-Carboxy-1-cyclopropyl-6-fluoro-8-methoxy-4-oxo-1,4-dihydroquinolin-7-yl)-pyrrolidin-3-ylcarbamoyl]-piperidin-1-yl}rifamycin S]
MIC [1]: 0.06 to 16 µg/mL (≈ 0.0514 to 13.7 µM)
MIC [2]: 0.06 to 32 µg/mL (≈ 0.0514 to 27.4 µM)
MIC [3]: 0.004 to 0.5 µg/mL (≈ 0.00343 to 0.429 µM)
MIC [4]: 0.008 to 0.063 µg/mL (≈ 0.00686 to 0.054 µM)
MIC [5]: 0.008 to 0.063 µg/mL (≈ 0.00686 to 0.054 µM)
MIC [6]: 0.125 to 8 µg/mL (≈ 0.107 to 6.86 µM)
MIC [7]: 0.008 to 0.125 µg/mL (≈ 0.00686 to 0.107 µM)
MIC [8]: 2 to 32 µg/mL (≈ 1.71 to 27.4 µM)
MIC [9]: 0.5 to 64 µg/mL
MIC [10]: 0.004 to 0.5 µg/mL (≈ 0.00343 to 0.429 µM)
MIC [11]: 0.125 to 2 µg/mL (≈ 0.107 to 1.71 µM)

Source: patent US7247634B2, “Rifamycin derivatives effective against drug-resistant microbes” (Cumbre Pharmaceuticals Inc., priority 2004, dated 2007)
